35 compounds from ChEMBL document CHEMBL6078668, “Synthesis and biological evaluation of lappaconitine analogues as potential anti-neuroinflammatory agents by side chain modification and scaffold hopping strategy” (Bioorg Med Chem, 2025) can be followed below.

Structures are written as SMILES.

A short description of series [1]: Cytotoxicity against C57BL/6 mouse BV-2 cells assessed as survival rate at 30 uM incubated for 24 hrs by MTT assay relative to control. The format is toxicity, cell-based. The following applies: read-out: Survival. (Tetrazolium assays rely on reduction of a dye to a coloured formazan, in cell work by metabolically active cells.)
Series [2] deals with BV-2. As to the kind of experiment: Anti-neuroinflammatory activity against LPS-stimulated C57BL/6 mouse BV-2 cells assessed as inhibition of NO release at 30 uM preincubated with compound for 4 hrs followed by LPS addition and measured after 24 hrs by Griess reagent based assay relative to control. The format is functional. The following applies: C57BL/6, BV-2, time 28 hrs.

As to `CCN1C[C@]2(COC(=O)c3ccccc3NS(=O)(=O)c3ccc(Br)s3)CC[C@H](OC)[C@]34C1[C@@H](C[C@H]23)[C@@]1(O)C[C@H](OC)[C@H]2C[C@@H]4[C@]1(O)[C@H]2O`, the viability at 24 h, 30 µM in series [1] was found to be 104%. Besides, the inhibition at 30 µM in series [2] was found to be 26.2%.

For `O=C(O)c1ccccc1NS(=O)(=O)c1cccc(F)c1`, the viability at 24 h, 30 µM in series [1] is 100%. In addition, the inhibition at 30 µM in series [2] is 10.8%.

As for `CCN1C[C@]2(O)CC[C@H](OC)[C@]34C1[C@@H](C[C@H]23)[C@@]1(O)C[C@H](OC)[C@H]2C[C@@H]4[C@]1(O)[C@H]2OC`, the viability at 24 h, 30 µM in series [1] turned out to be 97.4%. The inhibition at 30 µM in series [2] is 8.8%.

In the case of `CCN1C[C@]2(OC(=O)c3ccccc3NC(=O)S(=O)(=O)c3cc(F)c(F)cc3F)CC[C@H](OC)[C@]34C1[C@@H](C[C@H]23)[C@@]1(O)C[C@H](OC)[C@H]2C[C@@H]4[C@]1(O)[C@H]2OC`, in series [1], the viability at 24 h, 30 µM came to 108%. Besides, in series [2], the inhibition at 30 µM came to 10.5%.

Take `CCN1C[C@]2(OC(=O)c3ccccc3NC(=O)c3ccc(C#N)cc3)CC[C@H](OC)[C@]34C1[C@@H](C[C@H]23)[C@@]1(O)C[C@H](OC)[C@H]2C[C@@H]4[C@]1(O)[C@H]2OC`: the viability at 24 h, 30 µM in series [1] is 99.5%. The inhibition at 30 µM in series [2] amounted to 6.6%.

For the compound `O=C(Nc1ccccc1C(=O)O)c1ccc(Cl)s1`, the viability at 24 h, 30 µM in series [1] was found to be 98.7%. The inhibition at 30 µM in series [2] is 32.4%.

Turning to `CCCCOC(=O)c1ccccc1NC(=O)c1ccc(Cl)s1`, the viability at 24 h, 30 µM in series [1] came to 110%. In series [2], the inhibition at 30 µM was found to be 42.8%.

As to `CCN1C[C@]2(OC(=O)c3ccccc3NC(=O)S(=O)(=O)c3ccc(Cl)cc3F)CC[C@H](OC)[C@]34C1[C@@H](C[C@H]23)[C@@]1(O)C[C@H](OC)[C@H]2C[C@@H]4[C@]1(O)[C@H]2OC`, the viability at 24 h, 30 µM in series [1] was determined as 99.8%. For the same compound, the inhibition at 30 µM in series [2] was 14.9%.

In the case of `CCN1C[C@]2(OC(=O)c3ccccc3NC(=O)S(=O)(=O)c3ccccn3)CC[C@H](OC)[C@]34C1[C@@H](C[C@H]23)[C@@]1(O)C[C@H](OC)[C@H]2C[C@@H]4[C@]1(O)[C@H]2OC`, the viability at 24 h, 30 µM in series [1] amounted to 100%. For the same compound, the inhibition at 30 µM in series [2] amounted to 29.9%.

`CCCCC(CC)C(=O)Nc1ccccc1C(=O)O[C@@]12CC[C@H](OC)[C@]34C([C@@H](C[C@H]13)[C@@]1(O)C[C@H](OC)[C@H]3C[C@@H]4[C@]1(O)[C@H]3OC)N(CC)C2` (stereo not given in full): the viability at 24 h, 30 µM in series [1] is 95.9%. Further, the inhibition at 30 µM in series [2] worked out at 38.2%.

In the case of `CCN1C[C@]2(OC(=O)c3ccccc3NC(=O)S(=O)(=O)c3ccc(OC)cc3)CC[C@H](OC)[C@]34C1[C@@H](C[C@H]23)[C@@]1(O)C[C@H](OC)[C@H]2C[C@@H]4[C@]1(O)[C@H]2OC`, in series [1], the viability at 24 h, 30 µM is 92.4%. In series [2], the inhibition at 30 µM came to 10.8%.

With `CCN1C[C@]2(COC(=O)c3ccccc3NS(=O)(=O)c3ccc(Br)s3)CC[C@H](OC)[C@]34C1[C@@H](C[C@H]23)[C@@]1(O)C[C@H](OC)[C@H]2C[C@@H]4[C@]1(O)[C@H]2OC`, the viability at 24 h, 30 µM in series [1] was determined as 97.8%. Besides, in series [2], the inhibition at 30 µM was 34.7%.

For the compound `CCN1C[C@]2(OC(=O)c3ccccc3NC(=O)c3cccc(C)c3)CC[C@H](OC)[C@]34C1[C@@H](C[C@H]23)[C@@]1(O)C[C@H](OC)[C@H]2C[C@@H]4[C@]1(O)[C@H]2OC`, the viability at 24 h, 30 µM in series [1] turned out to be 112%. Further, the inhibition at 30 µM in series [2] worked out at 15.6%.

For the compound `CCN1C[C@]2(OC(=O)c3ccccc3NC(=O)CN(C)C)CC[C@H](OC)[C@]34C1[C@@H](C[C@H]23)[C@@]1(O)C[C@H](OC)[C@H]2C[C@@H]4[C@]1(O)[C@H]2OC`, the viability at 24 h, 30 µM in series [1] amounted to 94.5%. In addition, the inhibition at 30 µM in series [2] is 20.2%.

On to `CCCCOC(=O)c1ccccc1NS(=O)(=O)c1cccc(F)c1`, for which, in series [1], the viability at 24 h, 30 µM came out at 106%. In series [2], the inhibition at 30 µM came to 50.9%.

`CCN1C[C@]2(OC(=O)c3ccccc3NC(=O)S(=O)(=O)c3csc4ccccc34)CC[C@H](OC)[C@]34C1[C@@H](C[C@H]23)[C@@]1(O)C[C@H](OC)[C@H]2C[C@@H]4[C@]1(O)[C@H]2OC`: in series [1], the viability at 24 h, 30 µM came out at 100%. Besides, the inhibition at 30 µM in series [2] came to 30.7%.

Consider `CCN1C[C@]2(OC(=O)c3ccccc3NC(=O)C3CCOC3)CC[C@H](OC)[C@]34C1[C@@H](C[C@H]23)[C@@]1(O)C[C@H](OC)[C@H]2C[C@@H]4[C@]1(O)[C@H]2OC` (stereo not given in full), for which the viability at 24 h, 30 µM in series [1] came out at 109%. For the same compound, the inhibition at 30 µM in series [2] is 32.4%.

`CCO/C=C/C(=O)Nc1ccccc1C(=O)O[C@@]12CC[C@H](OC)[C@]34C([C@@H](C[C@H]13)[C@@]1(O)C[C@H](OC)[C@H]3C[C@@H]4[C@]1(O)[C@H]3OC)N(CC)C2`: in series [1], the viability at 24 h, 30 µM is 110%. Moreover, the inhibition at 30 µM in series [2] was determined as 28.7%.

In the case of `CCN1C[C@]2(OC(=O)c3ccccc3NC(=O)c3ccc(OC)cc3)CC[C@H](OC)[C@]34C1[C@@H](C[C@H]23)[C@@]1(O)C[C@H](OC)[C@H]2C[C@@H]4[C@]1(O)[C@H]2OC`, the viability at 24 h, 30 µM in series [1] is 100%. The inhibition at 30 µM in series [2] was found to be 45.2%.

Take `CCN1C[C@]2(OC(=O)c3ccccc3NC(=O)S(=O)(=O)c3ccc(F)c(Cl)c3)CC[C@H](OC)[C@]34C1[C@@H](C[C@H]23)[C@@]1(O)C[C@H](OC)[C@H]2C[C@@H]4[C@]1(O)[C@H]2OC`: the viability at 24 h, 30 µM in series [1] amounted to 93.6%. Also, the inhibition at 30 µM in series [2] amounted to 26.2%.

`CCN1C[C@]2(OC(=O)c3ccccc3NC(=O)c3ccccc3I)CC[C@H](OC)[C@]34C1[C@@H](C[C@H]23)[C@@]1(O)C[C@H](OC)[C@H]2C[C@@H]4[C@]1(O)[C@H]2OC`: the viability at 24 h, 30 µM in series [1] came out at 109%. Moreover, the inhibition at 30 µM in series [2] was 13.1%.

On to `CCN1C[C@]2(OC(=O)c3ccccc3NC(=O)C3CCCO3)CC[C@H](OC)[C@]34C1[C@@H](C[C@H]23)[C@@]1(O)C[C@H](OC)[C@H]2C[C@@H]4[C@]1(O)[C@H]2OC` (stereo not given in full), for which the viability at 24 h, 30 µM in series [1] was found to be 108%. Besides, in series [2], the inhibition at 30 µM was found to be 14.5%.

As to `CCN1C[C@]2(OC(=O)c3ccccc3NC(=O)c3ccccc3Cl)CC[C@H](OC)[C@]34C1[C@@H](C[C@H]23)[C@@]1(O)C[C@H](OC)[C@H]2C[C@@H]4[C@]1(O)[C@H]2OC`, the viability at 24 h, 30 µM in series [1] is 104%. In addition, the inhibition at 30 µM in series [2] came to 12.8%.

Consider `CCN1C[C@]2(OC(=O)c3ccccc3NC(=O)S(=O)(=O)c3ccccc3OC)CC[C@H](OC)[C@]34C1[C@@H](C[C@H]23)[C@@]1(O)C[C@H](OC)[C@H]2C[C@@H]4[C@]1(O)[C@H]2OC`, for which, in series [1], the viability at 24 h, 30 µM turned out to be 103%. Also, in series [2], the inhibition at 30 µM stood at 15.2%.

As to `O=C(O)c1ccccc1NS(=O)(=O)c1ccc(Br)s1`, the viability at 24 h, 30 µM in series [1] is 96.5%. Moreover, in series [2], the inhibition at 30 µM was determined as 18.4%.

As to `CCN1C[C@]2(OC(=O)c3ccccc3NC(=O)S(=O)(=O)c3cc(Br)c(Cl)s3)CC[C@H](OC)[C@]34C1[C@@H](C[C@H]23)[C@@]1(O)C[C@H](OC)[C@H]2C[C@@H]4[C@]1(O)[C@H]2OC`, the viability at 24 h, 30 µM in series [1] turned out to be 94.3%. Moreover, the inhibition at 30 µM in series [2] is 29.4%.

Regarding `CCN1C[C@]2(OC(=O)c3ccccc3NC(=O)S(=O)(=O)c3cccc([N+](=O)[O-])c3)CC[C@H](OC)[C@]34C1[C@@H](C[C@H]23)[C@@]1(O)C[C@H](OC)[C@H]2C[C@@H]4[C@]1(O)[C@H]2OC`, the viability at 24 h, 30 µM in series [1] was 106%. The inhibition at 30 µM in series [2] came out at 11.7%.

For `CCN1C[C@]2(OC(=O)c3ccccc3NC(=O)c3cccc(Br)c3)CC[C@H](OC)[C@]34C1[C@@H](C[C@H]23)[C@@]1(O)C[C@H](OC)[C@H]2C[C@@H]4[C@]1(O)[C@H]2OC`, in series [1], the viability at 24 h, 30 µM is 100%. The inhibition at 30 µM in series [2] turned out to be 44.1%.

In the case of `CCOc1ccc(C(=O)Nc2ccccc2C(=O)O[C@@]23CC[C@H](OC)[C@]45C([C@@H](C[C@H]24)[C@@]2(O)C[C@H](OC)[C@H]4C[C@@H]5[C@]2(O)[C@H]4OC)N(CC)C3)cc1`, the viability at 24 h, 30 µM in series [1] came to 101%. Besides, in series [2], the inhibition at 30 µM was 53.6%.

Consider `CCc1ccc(C(=O)Nc2ccccc2C(=O)OC[C@@]23CC[C@H](OC)[C@]45C([C@@H](C[C@H]24)[C@@]2(O)C[C@H](OC)[C@H]4C[C@@H]5[C@]2(O)[C@H]4O)N(CC)C3)cc1`, for which, in series [1], the viability at 24 h, 30 µM was 104%. Also, the inhibition at 30 µM in series [2] is 15.5%.

Regarding `CCN1C[C@]2(OC(=O)c3ccccc3NC(=O)S(=O)(=O)c3cc(F)ccc3F)CC[C@H](OC)[C@]34C1[C@@H](C[C@H]23)[C@@]1(O)C[C@H](OC)[C@H]2C[C@@H]4[C@]1(O)[C@H]2OC`, the viability at 24 h, 30 µM in series [1] is 105%. In addition, the inhibition at 30 µM in series [2] is 53.7%.

For the compound `CCN1C[C@]2(OC(=O)c3ccccc3NC(=O)S(=O)(=O)c3ccc(-c4ccccc4)cc3)CC[C@H](OC)[C@]34C1[C@@H](C[C@H]23)[C@@]1(O)C[C@H](OC)[C@H]2C[C@@H]4[C@]1(O)[C@H]2OC`, the viability at 24 h, 30 µM in series [1] came to 102%. The inhibition at 30 µM in series [2] was 41.9%.

Regarding `CCN1C[C@]2(COC(=O)c3ccccc3N)CC[C@H](OC)[C@]34C1[C@@H](C[C@H]23)[C@@]1(O)C[C@H](OC)[C@H]2C[C@@H]4[C@]1(O)[C@H]2OC`, in series [1], the viability at 24 h, 30 µM was determined as 91.9%. Also, in series [2], the inhibition at 30 µM was determined as 22%.

In the case of `CCN1C[C@]2(OC(=O)c3ccccc3NC(=O)c3ccc(Cl)cc3)CC[C@H](OC)[C@]34C1[C@@H](C[C@H]23)[C@@]1(O)C[C@H](OC)[C@H]2C[C@@H]4[C@]1(O)[C@H]2OC`, the viability at 24 h, 30 µM in series [1] amounted to 105%. Also, in series [2], the inhibition at 30 µM stood at 32.3%.

With `CCN1C[C@]2(OC(=O)c3ccccc3NC(=O)c3ccccc3F)CC[C@H](OC)[C@]34C1[C@@H](C[C@H]23)[C@@]1(O)C[C@H](OC)[C@H]2C[C@@H]4[C@]1(O)[C@H]2OC`, the viability at 24 h, 30 µM in series [1] amounted to 105%. The inhibition at 30 µM in series [2] was 17.3%.

The term inhibition denotes the change of the read-out against control, counted positive when it falls.
